Experimental data taken from patent US10227349B2, “Pyrazolo[1,5-a]pyrimidine compound” (Eisai R&D Management Co., Ltd., priority 2016, dated 2019).

Assays:
PAR2 [1] = target: T1, PAR2 (Homo sapiens, UniProt P55085); assay: Intracellular calcium concentration measurement (trypsin-induced calcium elevation, FDSS6000); assay type: cell-based; details: HEK293 cells, trypsin 5 U/mL as agonist, test compound added 30 min before measurement; read-out: Inhibitory activity on intracellular calcium elevation (IC50 (nM))
T1 construct: Human embryonic kidney cell line HEK293 cells cultured using DMEM culture medium; endogenous in cells; host or cells: HEK293
T1 sequence (P55085 26-397): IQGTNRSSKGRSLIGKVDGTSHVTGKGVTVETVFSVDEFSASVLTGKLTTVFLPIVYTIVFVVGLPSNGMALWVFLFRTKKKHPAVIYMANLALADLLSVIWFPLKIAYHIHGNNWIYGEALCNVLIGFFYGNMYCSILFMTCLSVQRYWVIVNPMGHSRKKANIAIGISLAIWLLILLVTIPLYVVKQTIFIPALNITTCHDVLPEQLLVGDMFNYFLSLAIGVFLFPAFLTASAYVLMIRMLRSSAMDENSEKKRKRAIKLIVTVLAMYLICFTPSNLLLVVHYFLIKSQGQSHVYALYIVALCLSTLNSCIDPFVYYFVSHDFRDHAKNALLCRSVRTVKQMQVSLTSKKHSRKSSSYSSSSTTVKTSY
Text: In the present specification, examples of the measurement method for the PAR2 inhibitory activity include measurement method for a concentration elevation of intracellular calcium; measurement method for a production increase of intracellular inositol trisphosphate; measurement method for an increase in intracellular protein phosphorylation by protein kinase C and MAP kinase; and measurement method for a production amount or a release amount of inflammation-related physiologically active substances such as cytokine, chemokine, prostaglandin and nitric monoxide. Examples of the measurement method for an elevation of intracellular calcium concentration include a method wherein a calcium-binding fluorescent probe is allowed to be incorporated in advance into a cultured cell line or an animal-derived isolated cell having PAR2, or a cell in which PAR2 is artificially expressed, a protease having the PAR2 activity function such as trypsin or a PAR2 agonist (synthetic peptides such as SLIGKV-NH2 (SEQ ID NO: 1) and SLIGRL-NH2 (SEQ ID NO: 2) is added to activate PAR2 whereby fluctuating intracellular calcium concentrations are detected as changes in the fluorescent signal. Alternatively, it is also possible to measure an intracellular calcium concentration by determining the quantity of a fluorescence intensity produced in proportion to the calcium concentration using a calcium-binding luminescent protein overexpressing cell line such as Aequorin. Specifically, examples include the methods described in Test Examples of the present specification.
Human embryonic kidney cell line HEK293 cells cultured using DMEM culture medium (Invitrogen) with 3% fetal bovine serum (3% FBS)-added was prepared to have a concentration of 2×10^5 cells/mL, and plated in a type I collagen-coated 384-well black plate (clear bottom) (Greiner) so as to be 25 μL/well and cultured in a CO2 incubator overnight. FLIPR Calcium Assay Kit (Molecular Devices) prepared with Hanks-20 mM Hepes buffer (pH 7.4) was added to the cells so as to be 25 μL/well and cultured in the CO2 incubator for 1 hour. Trypsin (SIGMA-ALDRICH, catalog number: T8816, Enzyme Commission Number 3.4.21.4) prepared so as to be 5 U/mL as final concentration (BAEE unit) with Hanks-20 mM Hepes buffer (pH 7.4) was added to a 384-well deep well polypropylene plate (Greiner) to be an agonist reagent plate. Thirty minutes before the measurement using FDSS6000 (Hamamatsu Photonics K.K.), a test compound prepared with Hanks-20 mM Hepes buffer (pH 7.4) was added to the cell so as to be 8 μL/well. The cell plate to which the test compound was added and the reagent plate were set on FDSS6000, 22 μL/well of the agonist solution was added from the reagent plate, and the change in intracellular calcium concentration was measured with a CCD camera. The measurement was carried out at 37° C. for 120 seconds and the addition of reagent from the reagent plate to the cell plate was carried out using a built-in 384-well automatic dispenser of FDSS6000.
Note that Reference Example 1 in Table 3 is the compound represented by formula (XIX) synthesized in the above Reference Example 1 (hereinafter, also referred to as Compound (XIX)). Additionally, the “Comparative Compound” in Table 3 is the compound described in Patent Literature 4 represented by the following formula (XX) (I-343; hereinafter, also referred to as Compound (XX)).

PAR2 [2] = target: T2, PAR2 (Mus musculus, UniProt P55086); assay: Measurement of PAR2 agonist (SLIGRL-NH2)-induced salivation in mouse; assay type: in vivo; details: C57BL/6J male mice, 0.3 mg/mL solution 10 mL/kg orally, 60 min before SLIGRL-NH2 i.p., saliva collected 10 min
T2 construct: orally administered to C57BL/6J male mice (Charles River), 6-10 weeks of age; tissue Charles River; host or cells: Living C57BL/6J male mice (in vivo; saliva secretion)
T2 sequence (P55086 26-399): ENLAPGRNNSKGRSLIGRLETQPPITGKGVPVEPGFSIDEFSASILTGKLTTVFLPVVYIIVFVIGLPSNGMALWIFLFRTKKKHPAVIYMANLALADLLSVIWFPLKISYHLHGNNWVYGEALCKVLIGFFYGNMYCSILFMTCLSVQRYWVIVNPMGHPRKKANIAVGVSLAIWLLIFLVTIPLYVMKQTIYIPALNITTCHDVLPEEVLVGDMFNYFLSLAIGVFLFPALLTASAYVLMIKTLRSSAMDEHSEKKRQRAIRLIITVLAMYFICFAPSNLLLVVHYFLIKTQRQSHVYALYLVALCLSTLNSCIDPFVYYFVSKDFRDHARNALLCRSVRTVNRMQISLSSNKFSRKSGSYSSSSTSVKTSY
Method: The test compound was added to a 0.5% carboxymethyl cellulose solution to which 2% DMSO was added, so as to have the final concentration of 0.3 mg/mL, thereby preparing an administration solution containing the test compound. The administration solution containing the test compound (10 mL/kg) was orally administered to C57BL/6J male mice (Charles River), 6-10 weeks of age, using an oral sonde and a syringe. Forty-five minutes after the administration of the test compound, 10 mL/kg of a 20% (w/v) urethane solution was intraperitoneal administered to the mice which were then anesthetized. Sixty minutes after the administration of the test compound, 10 mL/kg of a 0.1 mg/mL SLIGRL-NH2 (SEQ ID NO: 2) solution was intraperitoneally administered as the PAR2 agonist and a cotton ball was immediately placed in the oral cavity of the mouse to collect the saliva. Ten minutes after the administration of the PAR2 agonist, the cotton ball was removed and weighed to measure the amount of saliva secreted.
Note that Reference Example 1 in Table 4 is Compound (XIX). Additionally, Comparative Compound in Table 4 is Compound (XX).

Row | SMILES | IC50 (PAR2 [1]) | Inhibitory activity on the PAR2-dependent saliva secretion (%) (PAR2 [2])
1 | Cc1n[nH]c(C(=O)N2CCN(C(=O)c3cn4nc(-c5ccc(F)cc5)cc(C(C)(C)C)c4n3)C(C)(C)C2)n1 [Comparative Compound, reference compound] | 24.2 nM | 98.0%
2 | CC(C)CN(c1cc(-c2cc(F)c(F)c(F)c2)nc2cc(C(=O)N(C)[C@H](C)CC(=O)O)nn12)[C@H](C)C(C)C [Example 9, (R)-3-(7-(isobutyl((R)-3-methylbutan-2-yl)amino)-N-methyl-5-(3,4,5-trifluorophenyl)pyrazolo[1,5-a]pyrimidine-2-carboxamide)butanoic acid] | 4.9 nM | 96.0%
3 | Cc1cccc(C)c1N(C)c1cc(C2CCC(C)(C)CC2)nc2cc(C(=O)N3CC[C@@H](CC(=O)O)[C@@H](F)C3)nn12 (relative stereo) [Example 3, 2-((3R*,4S*)-1-(5-(4,4-dimethylcyclohexyl)-7-((2,6-dimethylphenyl)(methyl)amino)pyrazolo[1,5-a]pyrimidine-2-carbonyl)-3-fluoropiperidin-4-yl) acetic acid] | 8.73 nM | 86.7%
4 | CCCN(c1cc(-c2cc(F)c(Cl)c(F)c2)nc2cc(C(=O)N3CC[C@@H](CC(=O)O)[C@@H](C)C3)nn12)C(C)C (relative stereo) [Example 18, 2-((3R*,4S*)-1-(5-(4-chloro-3,5-difluorophenyl)-7-(isopropyl(propyl)amino)pyrazolo[1,5-a]pyrimidine-2-carbonyl)-3-methylpiperidin-4-yl)acetic acid] | 7.38 nM | 95.1%

Now from value to molecule:

Row | IC50 (PAR2 [1]) | Inhibitory activity on the PAR2-dependent saliva secretion (%) (PAR2 [2]) | SMILES
5 | 4.77 nM | 98.8% | CO[C@H]1CN(C(=O)c2cc3nc(-c4cc(F)c(Cl)c(F)c4)cc(N(C)c4c(C)cccc4Cl)n3n2)CC[C@H]1CC(=O)O (relative stereo) [Example 12, 2-((3R*,4S*)-1-(5-(4-chloro-3,5-difluorophenyl)-7-((2-chloro-6-methylphenyl)(methyl)amino)pyrazolo[1,5-a]pyrimidine-2-carbonyl)-3-methoxypiperidin-4-yl)acetic acid]
6 | 6.88 nM | 97.8% | CO[C@H]1CN(C(=O)c2cc3nc(-c4ccc(Cl)c(F)c4)cc(N(C)c4c(C)cccc4Cl)n3n2)CC[C@H]1CC(=O)O (relative stereo) [Example 11, 2-((3R*,4S*)-1-(5-(4-chloro-3-fluorophenyl)-7-((2-chloro-6-methylphenyl)(methyl)amino)pyrazolo[1,5-a]pyrimidine-2-carbonyl)-3-methoxypiperidin-4-yl)acetic acid]
7 | 7.32 nM | 87.1% | CO[C@H]1CN(C(=O)c2cc3nc(-c4ccc(F)c(Cl)c4)cc(N(C)c4c(C)cccc4C)n3n2)CC[C@H]1CC(=O)O (relative stereo) [Example 4, 2-((3R*,4S*)-1-(5-(3-chloro-4-fluorophenyl)-7-((2,6-dimethylphenyl)(methyl)amino)pyrazolo[1,5-a]pyrimidine-2-carbonyl)-3-methoxypiperidin-4-yl)acetic acid]
8 | 3.27 nM | 94.9% | CN(c1c(F)cccc1Cl)c1cc(-c2cc(F)c(F)c(F)c2)nc2cc(C(=O)N3CCC(CC(=O)O)CC3)nn12 [Example 17, 2-(1-(7-((2-chloro-6-fluorophenyl)(methyl)amino)-5-(3,4,5-trifluorophenyl)pyrazolo[1,5-a]pyrimidine-2-carbonyl)piperidin-4-yl)acetic acid]
9 | 5.08 nM | 92.5% | CN(c1ccccc1Cl)c1cc(-c2cc(F)c(Cl)c(F)c2)nc2cc(C(=O)N3CC[C@@H](CC(=O)O)[C@@H](F)C3)nn12 (relative stereo) [Example 14, 2-((3R*,4S*)-1-(5-(4-chloro-3,5-difluorophenyl)-7-((2-chlorophenyl)(methyl)amino)pyrazolo[1,5-a]pyrimidine-2-carbonyl)-3-fluoropiperidin-4-yl)acetic acid]
